Experimental data as given in ChEMBL document CHEMBL1144814, “5-Sulfonyl-benzimidazoles as selective CB2 agonists” (Bioorg Med Chem Lett, 2008).

Columns and labels:
Cannabinoid receptor 2 = Cannabinoid receptor 2 (Homo sapiens, UniProt P34972); test: Agonist activity at human CB2 receptor; format: functional
[1] = Ratio of EC50 for CB2 receptor to EC50 for CB1 receptor (unknow origin)
[2] = Metabolism in human liver microsomes after 15 mins
Cytochrome P450 1A2 = biological target: T1, Cytochrome P450 1A2 (Homo sapiens, UniProt P05177); test: Inhibition of CYP1A2; format: ADME
T1 sequence (P05177 whole entry): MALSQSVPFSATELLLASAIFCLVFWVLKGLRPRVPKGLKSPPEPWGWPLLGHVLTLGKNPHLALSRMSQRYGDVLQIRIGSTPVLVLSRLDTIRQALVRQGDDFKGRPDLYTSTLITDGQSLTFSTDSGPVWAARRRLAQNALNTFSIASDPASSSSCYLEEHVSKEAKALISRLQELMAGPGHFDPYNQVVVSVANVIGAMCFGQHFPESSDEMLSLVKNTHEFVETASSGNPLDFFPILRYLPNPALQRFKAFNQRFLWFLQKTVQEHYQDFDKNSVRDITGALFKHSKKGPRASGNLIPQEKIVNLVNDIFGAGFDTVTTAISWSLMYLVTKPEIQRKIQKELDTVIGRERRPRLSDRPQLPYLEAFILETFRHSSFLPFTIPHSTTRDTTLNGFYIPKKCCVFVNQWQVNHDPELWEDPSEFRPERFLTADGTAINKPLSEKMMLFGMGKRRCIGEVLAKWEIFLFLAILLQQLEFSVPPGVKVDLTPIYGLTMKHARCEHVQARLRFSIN

Cytochrome P450 2C19 = Cytochrome P450 2C19 (Homo sapiens, UniProt P33261); test: Inhibition of CYP2C19; format: ADME
Sequence of Cytochrome P450 2C19 (P33261 whole entry): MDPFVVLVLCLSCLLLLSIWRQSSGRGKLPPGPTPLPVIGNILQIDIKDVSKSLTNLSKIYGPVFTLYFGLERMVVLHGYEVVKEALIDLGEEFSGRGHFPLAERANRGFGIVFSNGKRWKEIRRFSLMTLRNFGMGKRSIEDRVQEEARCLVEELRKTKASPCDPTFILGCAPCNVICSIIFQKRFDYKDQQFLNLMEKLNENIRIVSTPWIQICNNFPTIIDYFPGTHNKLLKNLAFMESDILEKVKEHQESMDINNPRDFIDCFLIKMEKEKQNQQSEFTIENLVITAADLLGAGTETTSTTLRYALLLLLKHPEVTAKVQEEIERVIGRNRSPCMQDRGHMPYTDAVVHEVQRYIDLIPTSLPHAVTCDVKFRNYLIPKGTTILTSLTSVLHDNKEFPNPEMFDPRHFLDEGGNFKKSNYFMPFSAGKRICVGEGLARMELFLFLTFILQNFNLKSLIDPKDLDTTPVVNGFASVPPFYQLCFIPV

Cytochrome P450 2C9 = Cytochrome P450 2C9 (Homo sapiens, UniProt P11712); test: Inhibition of CYP2C9; format: ADME
Sequence of Cytochrome P450 2C9 (P11712 whole entry): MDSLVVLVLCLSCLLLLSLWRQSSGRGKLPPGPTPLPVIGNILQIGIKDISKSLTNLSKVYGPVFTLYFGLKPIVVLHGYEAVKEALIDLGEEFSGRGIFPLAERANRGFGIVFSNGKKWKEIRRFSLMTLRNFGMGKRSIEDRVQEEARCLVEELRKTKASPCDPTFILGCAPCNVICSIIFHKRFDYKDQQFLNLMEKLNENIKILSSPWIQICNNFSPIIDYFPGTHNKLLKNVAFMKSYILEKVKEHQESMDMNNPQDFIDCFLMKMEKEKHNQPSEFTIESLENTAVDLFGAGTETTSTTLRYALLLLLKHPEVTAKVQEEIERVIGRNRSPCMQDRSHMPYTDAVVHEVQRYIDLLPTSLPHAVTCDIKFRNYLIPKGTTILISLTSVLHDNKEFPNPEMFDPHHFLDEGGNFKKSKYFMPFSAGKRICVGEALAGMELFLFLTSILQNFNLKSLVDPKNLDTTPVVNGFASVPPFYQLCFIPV

Cytochrome P450 2D6 = Cytochrome P450 2D6 (Homo sapiens, UniProt P10635); test: Inhibition of CYP2D6; format: ADME
Sequence of Cytochrome P450 2D6 (P10635 whole entry): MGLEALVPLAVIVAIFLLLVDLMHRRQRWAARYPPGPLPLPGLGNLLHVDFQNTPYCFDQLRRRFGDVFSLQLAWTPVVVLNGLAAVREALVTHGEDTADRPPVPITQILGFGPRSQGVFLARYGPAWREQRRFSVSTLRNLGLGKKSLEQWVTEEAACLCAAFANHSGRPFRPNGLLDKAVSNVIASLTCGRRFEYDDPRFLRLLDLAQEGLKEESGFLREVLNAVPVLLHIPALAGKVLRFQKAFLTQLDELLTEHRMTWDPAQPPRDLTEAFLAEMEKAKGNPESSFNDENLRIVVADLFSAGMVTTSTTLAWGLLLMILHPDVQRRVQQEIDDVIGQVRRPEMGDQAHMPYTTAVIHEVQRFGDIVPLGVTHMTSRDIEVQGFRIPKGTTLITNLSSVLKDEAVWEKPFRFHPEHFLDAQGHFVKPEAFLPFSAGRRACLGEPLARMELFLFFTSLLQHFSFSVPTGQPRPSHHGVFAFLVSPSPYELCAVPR

Cytochrome P450 3A4 = Cytochrome P450 3A4 (Homo sapiens, UniProt P08684); test: Inhibition of CYP3A4; format: ADME
Sequence of Cytochrome P450 3A4 (P08684 whole entry): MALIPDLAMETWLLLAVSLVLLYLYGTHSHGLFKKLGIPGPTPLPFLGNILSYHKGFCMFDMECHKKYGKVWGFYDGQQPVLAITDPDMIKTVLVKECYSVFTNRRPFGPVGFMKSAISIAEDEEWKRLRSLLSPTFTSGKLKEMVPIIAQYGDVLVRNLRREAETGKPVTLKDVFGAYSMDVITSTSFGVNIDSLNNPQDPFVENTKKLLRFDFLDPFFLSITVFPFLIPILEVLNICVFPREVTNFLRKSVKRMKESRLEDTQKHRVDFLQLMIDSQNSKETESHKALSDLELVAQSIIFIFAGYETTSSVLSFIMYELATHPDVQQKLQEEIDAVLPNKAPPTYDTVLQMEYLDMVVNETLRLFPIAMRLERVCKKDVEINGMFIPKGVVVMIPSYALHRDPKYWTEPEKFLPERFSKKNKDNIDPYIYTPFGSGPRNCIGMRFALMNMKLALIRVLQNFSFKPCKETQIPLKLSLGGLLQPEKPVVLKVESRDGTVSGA

[3] = Solubility at pH 7.4; format: physicochemical; details: buffer
[4] = Solubility at pH 4; format: physicochemical; details: buffer
[5] = biological target: T2, Cannabinoid receptor 2 (Rattus norvegicus) (UniProt Q9QZN9); test: Agonist activity at rat CB2 receptor; format: functional
T2 sequence (whole entry): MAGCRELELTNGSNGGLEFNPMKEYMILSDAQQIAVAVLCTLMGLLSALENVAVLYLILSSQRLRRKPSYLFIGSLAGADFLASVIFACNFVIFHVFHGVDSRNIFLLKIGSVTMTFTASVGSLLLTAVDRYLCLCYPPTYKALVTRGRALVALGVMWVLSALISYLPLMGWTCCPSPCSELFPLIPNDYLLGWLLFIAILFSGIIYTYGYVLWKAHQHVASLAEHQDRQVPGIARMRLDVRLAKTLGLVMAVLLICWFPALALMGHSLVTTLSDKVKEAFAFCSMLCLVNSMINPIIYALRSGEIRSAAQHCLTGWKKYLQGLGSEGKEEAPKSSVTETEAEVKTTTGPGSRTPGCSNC

[6] = Oral bioavailability in Sprague-Dawley rat at 10 mg/kg; format: ADME, organism-based; details: in vivo
[7] = Ratio of drug level in brain to plasma in Sprague-Dawley rat at 10 mg/kg, po; format: ADME, organism-based; design: dose 10 mg/kg, route oral; details: read-out: BPR
[8] = Cmax in Sprague-Dawley rat at 10 mg/kg, po; format: ADME, organism-based; design: dose 10 mg/kg, route oral; details: in vivo
[9] = Tmax in Sprague-Dawley rat at 10 mg/kg, po; format: ADME, organism-based; design: dose 10 mg/kg, route oral; details: in vivo
[10] = Half life in Sprague-Dawley rat at 10 mg/kg, po; format: ADME, organism-based; design: dose 10 mg/kg, route oral; details: in vivo
[11] = AUC (0 to infinity) in Sprague-Dawley rat at 10 mg/kg, po; format: ADME, organism-based; design: time infinity, dose 10 mg/kg, route oral; details: plasma
Rattus norvegicus = test: Induction of CB1-mediated side effects in Sprague-Dawley rat at 40 mg/kg, po by tetrad test; format: organism-based; design: dose 40 mg/kg, route oral; details: in vivo
CYP2C19 = CYP2C19 (Homo sapiens, UniProt P33261); test: Inhibition of CYP2C19 at 10 uM; format: ADME
Sequence of CYP2C19 (P33261 whole entry): as the sequence (P33261 whole entry) above

CYP2C9 = CYP2C9 (Homo sapiens, UniProt P11712); test: Inhibition of CYP2C9 at 10 uM; format: ADME
Sequence of CYP2C9 (P11712 whole entry): as the sequence (P11712 whole entry) above

[12] = Fraction of dose absorbed in Sprague-Dawley rat at 10 mg/kg, po; format: ADME, organism-based; design: dose 10 mg/kg, route oral; details: in vivo, read-out: Fabs

Sequence of Cannabinoid receptor 2 (P34972 whole entry): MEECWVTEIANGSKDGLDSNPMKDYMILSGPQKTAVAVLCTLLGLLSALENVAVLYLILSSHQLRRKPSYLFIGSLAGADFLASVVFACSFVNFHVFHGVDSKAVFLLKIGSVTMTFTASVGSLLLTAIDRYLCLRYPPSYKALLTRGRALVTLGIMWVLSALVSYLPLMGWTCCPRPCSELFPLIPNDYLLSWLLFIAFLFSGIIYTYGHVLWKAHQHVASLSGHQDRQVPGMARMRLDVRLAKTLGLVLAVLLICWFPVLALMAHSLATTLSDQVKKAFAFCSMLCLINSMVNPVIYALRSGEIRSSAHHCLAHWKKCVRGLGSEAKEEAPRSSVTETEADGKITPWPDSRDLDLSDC

Row | Compound | EC50 (Cannabinoid receptor 2) [nM] | Ratio EC50 [1] | metabolized at 0.25 h [2] [%] | further results
1 | CC(C)(C)c1nc2cc(S(=O)(=O)c3ccc(CN)cc3)ccc2n1CC1CCOCC1 | 5 | 363 |  | 
2 | CCOc1ccc(Cc2nc3cc(S(=O)(=O)CC)c(Cl)cc3n2CC2CCCCC2)cc1 | 5 | 50 | 74 | 
3 | CC(C)(C)c1nc2cc(S(=O)(=O)CCCC(F)(F)F)ccc2n1CC1CCOCC1 | 1 | 285 | 36 | 
4 | CCOc1ccc(Cc2nc3cc(Cl)c([S+]([O-])CC)cc3[nH]2)cc1 (configuration not stated) | > 10000 |  |  | 
5 | CC(=O)NCCCS(=O)(=O)c1ccc2c(c1)nc(C(C)(C)C)n2CC1CCOCC1 | 100 | 109 |  | 
6 | [O-][S+](Cc1ccc(Cl)cc1)c1cc2nc(C3CCCCC3)[nH]c2cc1Cl (configuration not stated) | < 1 | > 1000 | < 50 | Efficacy (Cannabinoid receptor 2): > 100%; Inhibition (Cytochrome P450 1A2): < 50%; Inhibition (Cytochrome P450 2C19): < 50%; Inhibition (Cytochrome P450 2C9): < 50%; Inhibition (Cytochrome P450 2D6): < 50%; Inhibition (Cytochrome P450 3A4): < 50%; solubility [3]: > 20 µM; solubility [4]: > 20 µM
7 | CC(C)(C)c1nc2cc(S(=O)(=O)CC3CC3)ccc2n1CC1CCOCC1 | 1.3 | 121 | 14 | 
8 | CC(C)(C)c1nc2cc(S(=O)(=O)Cc3ccc(C#N)cc3)ccc2n1CC1CCCCC1 | 0.5 | 436 | 73 | 
9 | Cc1cc(S(=O)(=O)c2ccc3c(c2)nc(C(C)(C)C)n3CC2CCOCC2)ccn1 | 1.3 | 1620 | 40 | 
10 | CCS(=O)(=O)c1ccc2c(c1)nc(CC(C)C)n2CC1CCOCC1 | 4 |  |  | Efficacy (Cannabinoid receptor 2): 101%; Efficacy [5]: 43%
11 | CC(C)(C)c1nc2cc(S(=O)(=O)c3c(Cl)cccc3Cl)ccc2n1CC1CCOCC1 | 0.4 | 292 | 96 | 
12 | CCOc1ccc(Cc2nc3cc(SCC)c(Cl)cc3n2CC2CCOCC2)cc1 | 4 | 75 | 98 | 
13 | CC(C)(C)c1nc2cc(S(=O)(=O)c3nccs3)ccc2n1CC1CCOCC1 | 0.8 | 4 | 25 | 
14 | CCOc1ccc(Cc2nc3cc(S(=O)(=O)CC)c(Cl)cc3n2CC2CCOCC2)cc1 | 20 | 537 | 66 | 
15 | CCS(=O)(=O)c1ccc2c(c1)nc(C(C)(C)C)n2CC1CCOCC1 | 1.2 | 551 | 0 | Efficacy (Cannabinoid receptor 2): 120%; Efficacy [5]: 102%
16 | CC(C)(C)c1nc2cc(S(=O)(=O)c3cccc(C#N)c3)ccc2n1CC1CCOCC1 | 0.5 | 1460 | 61 | 
17 | CCOc1ccc(Cc2nc3cc([S+]([O-])CC)c(Cl)cc3n2CC2CCOCC2)cc1 (configuration not stated) | 20 | 484 | 95 | 
18 | CCS(=O)(=O)c1ccc2c(c1)nc(C1CC1)n2CC1CCOCC1 | 4 |  |  | Efficacy (Cannabinoid receptor 2): 109%; Efficacy [5]: 0%
19 | CCOc1ccc(Cc2nc3cc(SCC)c(Cl)cc3[nH]2)cc1 | 2000 |  |  | 

Row | Compound | EC50 (Cannabinoid receptor 2) [nM] | Ratio EC50 [1] | metabolized at 0.25 h [2] [%] | further results
20 | CC(C)(C)c1nc2cc(S(=O)(=O)CCC(F)(F)F)ccc2n1CC1CCOCC1 | 1.3 | 394 | 13 | 
21 | CC(=O)N(C)Cc1ccc(S(=O)(=O)c2ccc3c(c2)nc(C(C)(C)C)n3CC2CCOCC2)cc1 | 1.6 | 550 | 50 | 
22 | CC(C)(C)c1nc2cc(S(=O)(=O)c3ccc(C#N)cc3)ccc2n1CC1CCOCC1 | 0.6 | 191 | 42 | 
23 | CC(C)(C)c1nc2cc(S(=O)(=O)CCN)ccc2n1CC1CCOCC1 | 10 | 912 |  | 
24 | CCOc1ccc(Cc2nc3cc([S+]([O-])CC)c(Cl)cc3n2CC2CCCCC2)cc1 (configuration not stated) | 6.3 | 8.2 |  | 
25 | CC(C)(C)c1nc2cc(S(=O)(=O)C(F)(F)c3ccc(C#N)cc3)ccc2n1CC1CCCCC1 | 1.6 | 62 | 28 | 
26 | CCOc1ccc(Cc2nc3cc(SCC)c(Cl)cc3n2CC2CCCCC2)cc1 | 125 | 1.2 | 85 | 
27 | CCOc1cc(S(=O)(=O)c2ccc3c(c2)nc(C(C)(C)C)n3CC2CCOCC2)ccn1 | 0.3 | 4270 | 48 | bioavailability [6]: 43%; Kp [7]: 0.1; Cmax [8]: 731 ng/mL; Tmax [9]: 0.5 h; half-life [10]: 3.4 h; AUC(0-inf) [11]: 2500 ng·h/mL; Activity (Rattus norvegicus): Non-toxic; inhibition at 10 µM (CYP2C19): 76%; inhibition at 10 µM (CYP2C9): 94%; Fa [12]: ≤ 1%
28 | CCOc1ccc(Cc2nc3cc(S(=O)(=O)CC)ccc3n2CC2CCOCC2)cc1 | 4 | 1600 | 34 | Efficacy (Cannabinoid receptor 2): 44%
29 | CC(C)(C)c1nc2cc(S(=O)(=O)c3ccnc(F)c3)ccc2n1CC1CCOCC1 | 0.8 | 495 | 40 | 
30 | CC(C)(C)c1nc2cc(S(=O)(=O)c3ccncc3)ccc2n1CC1CCOCC1 | 1.2 | 215 | 28 | 
31 | CC(C)(C)c1nc2cc(S(=O)(=O)CCC#N)ccc2n1CC1CCOCC1 | 4 | 2110 | 24 | 
32 | CC(C)(C)c1nc2cc(S(=O)(=O)c3ccco3)ccc2n1CC1CCOCC1 | 0.4 | 40 |  | 
33 | CC(C)(C)c1nc2cc(S(=O)(=O)c3ccccc3)ccc2n1CC1CCCCC1 | 1.2 | 14 | 23 | 
34 | CC(C)(C)c1nc2cc(S(=O)(=O)CCO)ccc2n1CC1CCOCC1 | 2.5 | 3850 | 6 | 
35 | CCNCCCS(=O)(=O)c1ccc2c(c1)nc(C(C)(C)C)n2CC1CCOCC1 | 158 | 4.3 |  | 
36 | CCS(=O)(=O)c1ccc2c(c1)nc(C(C)C)n2CC1CCCCC1 | 1.6 |  |  | Efficacy (Cannabinoid receptor 2): 101%; Efficacy [5]: 99%
37 | CCS(=O)(=O)c1ccc2c(c1)nc(C(C)(C)C)n2CC1CCCCC1 | 0.8 |  |  | Efficacy (Cannabinoid receptor 2): 104%
38 | CCS(=O)(=O)c1ccc2c(c1)nc(C)n2CC1CCCCC1 | 31 |  |  | 
